One assay concerns S. aureus ATCC29213. As to the kind of experiment: microbe, parasite or virus in culture. The method, then: (§1) The minimum inhibitory concentration (MIC) was measured using a broth microdilution method to determine the in vitro antimicrobial activity of the peptides. Bacteria were inoculated into MHB and incubated overnight at 37 °C until the bacteria were in log phase growth. Next, we corrected the bacterial concentration to approximately 1 × 10^5 CFU/mL using MHB. The peptides were added to 96-well plates containing 0.01% acetic acid and 0.2% bovine serum albumin at final concentrations ranging from 0.25 to 128 μM. After incubation at 37 °C for 24 h, the absorbance was measured at 492 nm using a microplate reader (Tecan GENios F129004, Tecan, Austria). Broth containing microbes and […] were used as positive and negative controls, respectively. The lowest peptide concentration with no increase in absorbance compared to that of the negative control was defined as the MIC. The experiments were independently performed three times.

The subject of the next assay is E. coli UB1005. The assay can be described thus: microbe, parasite or virus in culture. The method, then: as §1
The test system of another assay is E. coli K99. As to the kind of experiment: microbe, parasite or virus in culture. Here is the method: as §1
A further assay deals with P. aeruginosa ATCC27853. As to the kind of experiment: microbe, parasite or virus in culture. The method, then:
as §1

The subject of another assay is S. pullorum C7913. As to the kind of experiment: microbe, parasite or virus in culture. The following applies: 24 h. The method, then:
as §1

In a further assay the test system is S. epidermidis ATCC12228. As to the kind of experiment: microbe, parasite or virus in culture. Here is the method: as §1
The test system of a further assay is E. coli K88. The assay can be described thus: microbe, parasite or virus in culture. Here is the method:
as §1

For assay [1], the system named is methicillin-resistant S. aureus ATCC43300. As to the kind of experiment: microbe, parasite or virus in culture. The method, then: as §1
The test system of a further assay is E. coli ATCC25922. As to the kind of experiment: microbe, parasite or virus in culture. The method, then:
as §1

The next assay relates to Gram-negative bacteria. As to the kind of experiment: MICs against Gram-negative strains (geometric mean, range). In kind it is cell-based. The following applies: for geometric mean MIC: read-out: MBC (GM), geometric mean of MICs, Gram (−). Here is the method: as §1
In another assay the test system is Gram-positive bacteria. To be noted: Gram-positive strains; 256 μM used where no activity at 128 μM. Here is the method:
as §1

Assay [2] concerns Gram-positive and Gram-negative bacteria. To be noted: all strains; 256 μM used where no activity at 128 μM. Here is the method: as §1
Setting [3] is: Staphylococcus aureus, ATCC29213, 24 h.
The mark [4] stands for this setting: Pseudomonas aeruginosa, ATCC27853, 24 h.
Where [5] appears, read: Staphylococcus epidermidis, ATCC12228, 24 h.
The mark [6] stands for this setting: Staphylococcus aureus, ATCC43300, 24 h.
Setting [7] is: Escherichia coli, ATCC25922, 24 h.

The source of these data is paper PMC6718988, “Bioactivity and Bactericidal Mechanism of Histidine-Rich β-Hairpin Peptide Against Gram-Negative Bacteria” (International Journal of Molecular Sciences, 2019).

Values after ≈ are worked out from the molar mass of the structure shown. Where a SMILES comes first, the peptide text is derived from it. Bridges are numbered along the chain shown (N, C = ends). [ ]: non-standard residue; d: D form. The star is where a group is joined. X1 = CC[C@H](C)CCCCC(=O)*; Dab = NCC[C@H](N)C(=O)O

Take `CNC(C)C1CCC(N)C(OC2C(N)CC(N)C(OC3OCC(C)(O)C(NC)C3O)C2O)O1` (centres unmarked) [Gentamicin]: the MIC with S. aureus ATCC29213 (setting [3]) is 1 µM (≈ 0.478 µg/mL); in the assay on E. coli UB1005 (Escherichia coli, UB1005, 24 h), 0.5 µM (≈ 0.239 µg/mL); in the assay with E. coli K99 (Escherichia coli, K99, 24 h), 0.5 µM (≈ 0.239 µg/mL); against P. aeruginosa ATCC27853 (setting [4]), 1 µM (≈ 0.478 µg/mL); in the assay on S. pullorum C7913 (Salmonella enterica, PULLORUM), 1 µM (≈ 0.478 µg/mL); against S. epidermidis ATCC12228 (setting [5]), 1 µM (≈ 0.478 µg/mL). Moreover, the MIC against E. coli K88 (Escherichia coli, K88, 24 h) worked out at 1 µM (≈ 0.478 µg/mL); in assay [1] (setting [6]) it was 8 µM (≈ 3.82 µg/mL); in the assay on E. coli ATCC25922 (setting [7]) it was 1 µM (≈ 0.478 µg/mL). Also, the geometric mean MIC in the assay on Gram-negative bacteria is 0.79 µM.
For the compound `CN[C@H](CC(C)C)C(=O)N[C@H]1C(=O)N[C@@H](CC(N)=O)C(=O)N[C@H]2C(=O)N[C@H]3C(=O)N[C@H](C(=O)N[C@H](C(=O)O)c4cc(O)cc(O)c4-c4cc3ccc4O)[C@H](O)c3ccc(c(Cl)c3)Oc3cc2cc(c3O[C@@H]2O[C@H](CO)[C@@H](O)[C@H](O)[C@H]2O[C@H]2C[C@](C)(N)[C@H](O)[C@H](C)O2)Oc2ccc(cc2Cl)[C@H]1O` [Vancomycin], the MIC was 0.5 µM (≈ 0.725 µg/mL) in the assay on S. aureus ATCC29213 (setting [3]); 16 µM (≈ 23.2 µg/mL) in the assay with E. coli UB1005 (Escherichia coli, UB1005, 24 h); 4 µM (≈ 5.8 µg/mL) in the assay with E. coli K99 (Escherichia coli, K99, 24 h); above 128 µM with P. aeruginosa ATCC27853 (setting [4]); 8 µM (≈ 11.6 µg/mL) against S. pullorum C7913 (Salmonella enterica, PULLORUM); 0.5 µM (≈ 0.725 µg/mL) with S. epidermidis ATCC12228 (setting [5]). Further, the MIC with E. coli K88 (Escherichia coli, K88, 24 h) amounted to 2 µM (≈ 2.9 µg/mL); in [1] (setting [6]), 0.5 µM (≈ 0.725 µg/mL); in the assay with E. coli ATCC25922 (setting [7]) it was 8 µM (≈ 11.6 µg/mL). For the same compound, in the assay on Gram-negative bacteria, the geometric mean MIC was 11.3 µM.
With `CC[C@H](C)CCCCC(=O)N[C@@H](CCN)C(=O)N[C@H](C(=O)N[C@@H](CCN)C(=O)N[C@H]1CCNC(=O)[C@H]([C@@H](C)O)NC(=O)[C@H](CCN)NC(=O)[C@H](CCN)NC(=O)[C@H](CC(C)C)NC(=O)[C@@H](Cc2ccccc2)NC(=O)[C@H](CCN)NC1=O)[C@@H](C)O` [Polymyxin B, polymyxin B] (X1-[Dab]T[Dab][Dab][Dab][dF]L[Dab][Dab]T; lactam 4-C (inferred); N-terminus assumed), in the assay with Gram-positive bacteria, the “MBC (GM), geometric mean of MICs, Gram (+)” value worked out at 50.8 µM. The “MBC (GM), geometric mean of MICs, Gram (+,−)” value in assay [2] came out at 4 µM. For the same compound, the MIC against S. aureus ATCC29213 (S.aureus 29213, MHB, about 1 × 10^5 CFU/mL, 37 °C, 24 h, three independent experiments) is 64 µM (≈ 77 µg/mL); with E. coli UB1005 (E. coli UB1005, MHB, about 1 × 10^5 CFU/mL, 37 °C, 24 h, three independent experiments), 1 µM (≈ 1.2 µg/mL); in the assay on E. coli K99 (E. coli K99, MHB, about 1 × 10^5 CFU/mL, 37 °C, 24 h, three independent experiments), 1 µM (≈ 1.2 µg/mL); against P. aeruginosa ATCC27853 (P. auruginosa 27853, MHB, about 1 × 10^5 CFU/mL, 37 °C, 24 h, three independent experiments), 2 µM (≈ 2.41 µg/mL); against S. pullorum C7913 (S.pullorum C7913, MHB, about 1 × 10^5 CFU/mL, 37 °C, three independent experiments), 1 µM (≈ 1.2 µg/mL); against S. epidermidis ATCC12228 (S.epidermidis 12228, MHB, about 1 × 10^5 CFU/mL, 37 °C, 24 h, three independent experiments), 32 µM (≈ 38.5 µg/mL). The MIC in the assay with E. coli K88 (E. coli K88, MHB, about 1 × 10^5 CFU/mL, 37 °C, 24 h, three independent experiments) was 0.5 µM (≈ 0.602 µg/mL); in [1] (S.aureus 43300 (methicillin-resistant), MHB, about 1 × 10^5 CFU/mL, 37 °C, 24 h, three independent experiments), 64 µM (≈ 77 µg/mL); with E. coli ATCC25922 (E. coli 25922, MHB, about 1 × 10^5 CFU/mL, 37 °C, 24 h, 0.25-128 μM, three independent experiments), 2 µM (≈ 2.41 µg/mL). For the same compound, the “MBC (GM), geometric mean of MICs, Gram (−)” value in the assay on Gram-negative bacteria (Gram-negative strains, 256 μM used where no activity at 128 μM) came out at 1.12 µM.
